Our source for the IC50 values is article PMC7662397, “p-Cymene Complexes of Ruthenium(II) as Antitumor Agents” (Molecules, 2020).

Test [1] has as its system HeLa cells. Description: MTT cytotoxicity assay, HeLa cells, 48 h. It counts as cell-based, human. The conditions noted are these: read-out: IC50 (μM) HeLa. An excerpt: (§1) Human cervical cancer cells (HeLa), human breast cancer cells (MCF-7) and green monkey kidney epithelial cells (BGM) were acquired from the American Type Culture Collection (ATCC, USA). The reason to choose human cervical cancer cells (HeLa) and human breast cancer cells (MCF-7) was to use a cell culture model that closely represented the human in vivo situation. The green monkey kidney epithelial cells (BGM) were chosen to compare cancer cells with healthy cells. Cell lines were maintained in Dulbecco’s Modified Eagle Medium (DMEM) with a low glucose content (1 g/L) supplemented with 10% (v/v) fetal bovine serum (FBS), 1 mM glutamax, 1% antibiotics (penicillin–streptomycin) and 1 mM pyruvate. In all cases, the cells were maintained at 37 °C in 5% CO2 atmosphere of 95% humidity. Cells were sub-cultured and the medium was changed once a week. In all cases, 0.25% trypsin, 0.25 mM ethylenediaminetetraacetic acid (EDTA) was used.
(§2) A total of 5 × 10^3 cells/well (200 µL of the culture medium described above) were seeded into a 96-well plate and incubated at 37 °C in a 5% CO2 and 95% humidity atmosphere for 24 h. […] Finally, a 200 µL aliquot of each of these last sixteen solutions was added to the wells. Cells were incubated at 37 °C for 48 h. The medium was then removed from the wells and 200 μL of MTT (3-(4,5-dimethylthiazol-2-yl)-2,5-diphenyltetrazolium bromide, 1 mg/mL final concentration) was added. After 4 h incubation in identical conditions, MTT was removed and 100 µL of dimethyl sulfoxide (DMSO) added. The absorbance at 560 nm was measured and recorded in a Fluostar Omega spectrophotometer.
(§3) Absorbances at each compound concentration were translated into inhibition percentages, I%, according to Equation (1):(1) I% = [1− AT/AC]×100 where AT and AC are the absorbance of treated and control cells, respectively.
(§4) The fitting was performed using GraphPad Prism v.8 software. All compounds were tested in three independent sets with triplicate points. The in vitro studies were performed in SACE (Support Service for Experimental Sciences, University of Murcia, Murcia, Spain) with biosecurity Level 2.
In general terms: Tetrazolium assays rely on reduction of a dye to a coloured formazan, in cell work by metabolically active cells.

Test [2] deals with MCF-7 cells. Description: MTT cytotoxicity assay, MCF-7 cells, 48 h. It counts as cell-based, human. The conditions noted are these: read-out: IC50 (μM) MCF-7.
Excerpt: as §1, §2, §3, §4

In test [3] the test system is BGM cells. Briefly: MTT cytotoxicity assay, BGM cells, 48 h. To be noted: read-out: IC50 (μM) BGM. It counts as cell-based, green monkey.
Excerpt: as §1, §2, §3, §4

In test [4] the test system is MCF-7 cells. To be noted: cisplatin value from the literature; cited from earlier work.
The test system of test [5] is HeLa cells. Set-up: method as in PMID 29880783. The conditions noted are these: cisplatin value from the literature; cited from earlier work.
Test [6] deals with BGM cells. To be noted: cisplatin value from the literature; cited from earlier work.
The mark [7] stands for this setting: human cervical cancer cells, 48 h exposure, MTT.
[8] abbreviates: human breast cancer cells, 48 h exposure, MTT.
Where [9] appears, read: healthy green monkey kidney epithelial cells, 48 h exposure, MTT.
[10] abbreviates: MCF7, human breast cancer cells, 48 h exposure, MTT.
Where [11] appears, read: Chlorocebus sabaeus, BGM, healthy green monkey kidney epithelial cells, 48 h exposure, MTT.

The IC50 is the midpoint of a concentration-inhibition curve.

Read-outs that look alike come from different tables or passages of the source.

In the case of `N#Cc1ccncc1` [4-cyanopyridine], the 50% inhibitory concentration (IC50) in test [1] (Homo sapiens, 48 h) was over 250 µM; in test [2] (Homo sapiens, MCF7, 48 h) it was over 250 µM; in test [3] (Chlorocebus sabaeus, BGM, 48 h) it was over 250 µM.

As for `Cc1ccc(C(C)C)cc1.Nc1ccc(O)cc1.[Cl][Ru][Cl]` [Complex III], the values for the concentration for half-maximal inhibition (IC50) in test [1] (setting [7]), in test [2] (setting [8]) and in test [3] (setting [9]) were 171 ± 2.1 µM, 75.8 ± 2.3 µM and 59.6 ± 1.9 µM, respectively.

With `Cc1ccc(C(C)C)cc1.Nc1ccccc1O.[Cl][Ru][Cl]` [Complex II], the results for the IC50 in test [1] (setting [7]), in test [2] (setting [8]) and in test [3] (setting [9]) were 82.9 ± 0.67 µM, 28.7 ± 1.8 µM and over 250 µM, respectively.

In the case of `Cc1ccc(C(C)C)cc1.[Cl][Ru][Cl].c1ccnnc1` [Complex IV], the 50% inhibitory concentration (IC50) in test [1] (setting [7]), in test [2] (setting [8]) and in test [3] (setting [9]) was over 250 µM in each case.

With `Cc1ccc(C(C)C)cc1.N#Cc1ccncc1.[Cl][Ru][Cl]` [Complex I], the IC50 in test [1] (setting [7]), in test [2] (setting [8]) and in test [3] (setting [9]) was over 250 µM in each case.

Consider `Cc1ccc(C(C)C)cc1.F[P-](F)(F)(F)(F)F.Nc1ccccc1O.Nc1ccccc1O.[Cl][Ru+]` [Complex VI], for which the IC50 was 57.6 ± 4 µM in test [1] (setting [7]), 24.9 ± 4.3 µM in test [2] (setting [8]) and 95 ± 1.7 µM in test [3] (setting [9]).

In the case of `Nc1ccccc1O` [L = 2-aminophenol, 2-aminophenol], the IC50 in test [1] (setting [7]) was over 250 µM; in test [2] (setting [10]), 131.3 ± 0.15 µM; in test [3] (setting [11]), over 250 µM.

Take `Nc1ccc(O)cc1` [L = 4-aminophenol, 4-aminophenol]: the concentration for half-maximal inhibition (IC50) in test [1] (setting [7]), in test [2] (setting [10]) and in test [3] (setting [11]) was over 250 µM in each case.

As to `c1ccnnc1` [Pyridazine], the half-maximal inhibitory concentration (IC50) in test [1] (setting [7]), in test [2] (setting [10]) and in test [3] (setting [11]) was over 250 µM each time.

As for `N.N.[Cl][Pt][Cl]` [cisplatin], the IC50 in test [4] was 7.15 ± 0.1 µM; in test [5], 67.6 ± 2 µM; in test [6], 5.45 ± 0.2 µM.
